In article PMC9814457 (2022):

Test system: QDJ1 (model quadruplex-duplex junction) (DNA, G4) GGTTGGCGCGAAGCATTCGCGGGTTGG
Assay: NMR ligand protection (53-compound library, HSQC difference)
Settings: 20 mM KCl; 20 mM K2HPO4, pH 7.0; 30 μM DNA

binding: yes
Compound: NCc1cc(CN)cc(CN)c1
